This passage reports IC50, EC50 and Activity results from ChEMBL document CHEMBL5584206, “Discovery of (S)-3-(4-(benzyloxy)phenyl)-2-(2-phenoxyacetamido)propanoic acid derivatives as a new class of GPR34 antagonists” (Bioorg Med Chem Lett, 2024).

The target in data set [1] is T1, Probable G-protein coupled receptor 34 (Homo sapiens, UniProt Q9UPC5). Kind of data set: Antagonist activity at GPR34 (unknown origin) by Glosensor cAMP assay. The data set is classed as functional.
In data set [2] the target is T1, Probable G-protein coupled receptor 34. The experiment in a line: Antagonist activity at GPR34 (unknown origin) by Tango assay. The data set is classed as functional.
Data set [3] in a line: Cytotoxicity against HEK293 cells incubated for 72 hrs by MTT assay. Type of data set: toxicity, cell-based. Conditions: human.
Data set [4] is described as follows: Cytotoxicity against human LX2 cells incubated for 72 hrs by MTT assay. The following applies: LX-2 cells. Type of data set: toxicity, cell-based.
The nature of data set [5]: Cytotoxicity against human BEAS-2B cells incubated for 72 hrs by MTT assay. Type of data set: toxicity, cell-based.
Data set [6] can be described thus: Cytotoxicity against human HUVEC cells incubated for 72 hrs by MTT assay. The data set is classed as toxicity, cell-based.
Data set [7] in a line: Cytotoxicity against human Muller cells incubated for 72 hrs by MTT assay. Type of data set: toxicity, cell-based, Muller cell.
The nature of data set [8]: Cytotoxicity against African green monkey COS-7 cells incubated for 72 hrs by MTT assay. The data set is classed as toxicity, cell-based, Chlorocebus aethiops.
The target in data set [9] is T2, Lysophosphatidic acid receptor 3 (Homo sapiens, UniProt Q9UBY5).
T2 sequence (Q9UBY5 whole entry): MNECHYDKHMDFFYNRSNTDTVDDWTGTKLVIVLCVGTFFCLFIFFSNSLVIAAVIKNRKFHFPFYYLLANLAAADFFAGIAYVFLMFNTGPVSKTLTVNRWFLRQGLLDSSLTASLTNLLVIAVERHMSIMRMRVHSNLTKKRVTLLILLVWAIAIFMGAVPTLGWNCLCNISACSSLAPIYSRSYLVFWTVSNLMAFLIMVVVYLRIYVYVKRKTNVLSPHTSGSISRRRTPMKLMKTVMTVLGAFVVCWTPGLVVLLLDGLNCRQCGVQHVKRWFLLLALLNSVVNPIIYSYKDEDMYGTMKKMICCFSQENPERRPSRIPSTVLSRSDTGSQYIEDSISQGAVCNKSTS
Kind of data set: Agonist activity at LPAR3 (unknown origin). The data set is classed as functional.

Data set [10] addresses T3, Lysophosphatidic acid receptor 4 (Homo sapiens, UniProt Q99677). The experiment in a line: Agonist activity at LPAR4 (unknown origin). The data set is classed as functional.
The target in data set [11] is T4, P2Y purinoceptor 12 (Homo sapiens, UniProt Q9H244). Kind of data set: Agonist activity at P2Y12R (unknown origin). The data set is classed as functional.
T4 sequence (Q9H244 whole entry): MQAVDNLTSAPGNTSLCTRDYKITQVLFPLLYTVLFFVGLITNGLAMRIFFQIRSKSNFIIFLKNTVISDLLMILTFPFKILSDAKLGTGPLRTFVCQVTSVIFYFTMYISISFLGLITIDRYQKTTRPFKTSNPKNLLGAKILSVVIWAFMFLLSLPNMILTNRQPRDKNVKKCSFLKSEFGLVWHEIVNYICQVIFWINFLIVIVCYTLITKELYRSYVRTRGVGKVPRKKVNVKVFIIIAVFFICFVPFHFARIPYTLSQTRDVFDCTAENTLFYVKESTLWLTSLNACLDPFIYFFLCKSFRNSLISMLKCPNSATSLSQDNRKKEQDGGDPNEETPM
Data set [12] deals with T5, Cannabinoid receptor 2 (Homo sapiens, UniProt P34972). The experiment in a line: Agonist activity at CB2 (unknown origin). The data set is classed as functional.
T5 sequence (P34972 whole entry): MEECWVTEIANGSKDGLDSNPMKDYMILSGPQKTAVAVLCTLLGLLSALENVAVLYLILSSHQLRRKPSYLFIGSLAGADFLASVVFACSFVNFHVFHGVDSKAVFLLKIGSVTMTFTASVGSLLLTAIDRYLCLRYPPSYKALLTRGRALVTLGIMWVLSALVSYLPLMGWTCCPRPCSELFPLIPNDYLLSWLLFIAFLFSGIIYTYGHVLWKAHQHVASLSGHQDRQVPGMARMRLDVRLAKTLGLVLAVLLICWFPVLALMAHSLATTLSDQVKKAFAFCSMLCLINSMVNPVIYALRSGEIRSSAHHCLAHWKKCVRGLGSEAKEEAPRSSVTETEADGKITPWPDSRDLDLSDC
The target in data set [13] is T6, C-X-C chemokine receptor type 5 (Homo sapiens, UniProt P32302).
T6 sequence (P32302 whole entry): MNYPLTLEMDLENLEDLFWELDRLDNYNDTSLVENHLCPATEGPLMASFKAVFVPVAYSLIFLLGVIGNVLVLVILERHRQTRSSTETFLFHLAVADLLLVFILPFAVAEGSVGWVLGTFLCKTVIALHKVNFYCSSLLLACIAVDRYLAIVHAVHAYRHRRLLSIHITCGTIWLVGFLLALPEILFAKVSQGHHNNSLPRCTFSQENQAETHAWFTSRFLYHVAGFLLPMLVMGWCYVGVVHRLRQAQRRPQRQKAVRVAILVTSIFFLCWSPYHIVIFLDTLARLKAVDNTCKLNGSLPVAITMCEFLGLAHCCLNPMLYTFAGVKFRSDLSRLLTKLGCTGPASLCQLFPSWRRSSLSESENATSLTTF
The experiment in a line: Agonist activity at CXCR5 (unknown origin). Type of data set: functional.

The target of data set [14] is T7, Adenosine receptor A3 (Homo sapiens, UniProt P0DMS8).
T7 sequence (P0DMS8 whole entry): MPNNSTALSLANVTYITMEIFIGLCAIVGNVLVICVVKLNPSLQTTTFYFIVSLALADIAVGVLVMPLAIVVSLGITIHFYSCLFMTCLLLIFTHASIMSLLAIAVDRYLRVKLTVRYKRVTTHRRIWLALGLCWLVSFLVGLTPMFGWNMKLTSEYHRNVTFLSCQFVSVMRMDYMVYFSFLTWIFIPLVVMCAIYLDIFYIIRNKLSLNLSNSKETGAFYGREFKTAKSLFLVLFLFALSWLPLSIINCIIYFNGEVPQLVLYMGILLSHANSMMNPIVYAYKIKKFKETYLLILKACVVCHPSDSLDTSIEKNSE
The experiment in a line: Agonist activity at A3AR (unknown origin). Type of data set: functional.

In data set [15] the target is T2, Lysophosphatidic acid receptor 3. Kind of data set: Antagonist activity at LPAR3 (unknown origin). Type of data set: functional.
The target in data set [16] is T3, Lysophosphatidic acid receptor 4. Kind of data set: Antagonist activity at LPAR4 (unknown origin). Type of data set: functional.
The target of data set [17] is T4, P2Y purinoceptor 12. Kind of data set: Antagonist activity at P2Y12R (unknown origin). The data set is classed as functional.
Data set [18] deals with T5, Cannabinoid receptor 2. Kind of data set: Antagonist activity at CB2 (unknown origin). Type of data set: functional.
Data set [19] addresses T6, C-X-C chemokine receptor type 5. Kind of data set: Antagonist activity at CXCR5 (unknown origin). The data set is classed as functional.
Data set [20] has as its target T7, Adenosine receptor A3. Kind of data set: Antagonist activity at A3AR (unknown origin). Type of data set: functional.
The nature of data set [21]: Acute toxicity in C57BL/6 mouse assessed as animal death at 200 mg/kg, ip. Type of data set: organism-based. The following applies: in vivo.
Data set [22] can be described thus: Toxicity in C57BL/6 mouse assessed as body weight change at 100 mg/kg, ip bid for 6 days consecutively. Type of data set: organism-based. Conditions: in vivo, 144 h, time 6 day.
A short description of data set [23]: Toxicity in C57BL/6 mouse assessed as indications of organ damage at 100 mg/kg, ip bid for 6 days consecutively. The data set is classed as organism-based. Conditions: in vivo, 144 h, time 6 day.
Data set [24] concerns Mus musculus. Kind of data set: Antinociceptive activity in mouse model of SNI-induced neuropathic pain assessed as reduction in mechanical allodynia at 10 to 20 mg/kg, ip bid. Conditions: dose 10-20 mg/kg. Type of data set: functional, organism-based.

Molecules are shown by their SMILES. Active and inactive are the calls of the source. The calls are words filed in the database; no cut-off is given here.

T1 sequence (Q9UPC5 whole entry): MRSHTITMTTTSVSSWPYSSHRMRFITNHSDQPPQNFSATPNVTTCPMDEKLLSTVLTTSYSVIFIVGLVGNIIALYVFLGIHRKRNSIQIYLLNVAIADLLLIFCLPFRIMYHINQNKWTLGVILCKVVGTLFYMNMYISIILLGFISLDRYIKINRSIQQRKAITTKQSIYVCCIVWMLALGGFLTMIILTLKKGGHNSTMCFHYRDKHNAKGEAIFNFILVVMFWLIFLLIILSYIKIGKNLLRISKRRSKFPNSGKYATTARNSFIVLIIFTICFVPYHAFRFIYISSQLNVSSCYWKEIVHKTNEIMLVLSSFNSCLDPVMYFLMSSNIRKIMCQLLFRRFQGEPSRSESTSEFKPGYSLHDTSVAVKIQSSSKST
T3 sequence (Q99677 whole entry): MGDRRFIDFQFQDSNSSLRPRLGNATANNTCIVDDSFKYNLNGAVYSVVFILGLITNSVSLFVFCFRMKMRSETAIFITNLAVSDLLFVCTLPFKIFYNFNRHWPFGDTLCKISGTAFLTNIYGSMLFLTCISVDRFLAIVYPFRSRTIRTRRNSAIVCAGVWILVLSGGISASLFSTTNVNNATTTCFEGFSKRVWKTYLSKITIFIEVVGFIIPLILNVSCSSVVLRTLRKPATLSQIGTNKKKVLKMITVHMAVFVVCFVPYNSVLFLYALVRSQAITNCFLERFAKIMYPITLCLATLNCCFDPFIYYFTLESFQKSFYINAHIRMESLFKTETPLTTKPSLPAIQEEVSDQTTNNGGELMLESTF

Consider `O=C(COc1ccc(-c2cccc(C(F)(F)F)c2)cc1)N[C@@H](Cc1ccc(OCc2ccccc2)cc1)C(=O)O`, for which the IC50 in data set [1] was found to be 1.31 µM.
`CC(C)c1ccc(OCC(=O)N[C@@H](Cc2ccc(OCc3ccccc3)cc2)C(=O)O)cc1` displayed an IC50 in [1] of over 30 µM.
On the same count and under the same terms, the value for `O=C(COc1ccc(F)cc1)N[C@@H](Cc1ccc(OCc2ccccc2)cc1)C(=O)O` was 11.6 µM.
The same measure, in the same setting: the value for `NC(=O)[C@H](Cc1ccc(OCc2ccccc2)cc1)NC(=O)COc1ccc(-c2cccc(Cl)c2)cc1` was over 30 µM; that for `O=C(COc1ccc(-c2cccc(Cl)c2)cc1)N[C@H](Cc1ccc(OCc2ccccc2)cc1)C(=O)O` was 2.98 µM; that for `O=C(COc1ccc(Cl)cc1)N[C@@H](Cc1ccc(OCc2ccccc2)cc1)C(=O)O` was over 30 µM.
The same measure, in the same setting: the result for `O=C(COc1ccc(-c2cccc(Cl)c2)cc1)N[C@@H](Cc1ccccc1)C(=O)O` reads over 30 µM.
As for `COc1cccc(-c2ccc(OCC(=O)N[C@@H](Cc3ccc(OCc4ccccc4)cc3)C(=O)O)cc2)c1`, the IC50 in data set [1] is over 30 µM.
Compound `O=C(COc1cccnc1)N[C@@H](Cc1ccc(OCc2ccccc2)cc1)C(=O)O` yielded an IC50 in data set [1] of over 30 µM.
On the same count and under the same terms, the result for `O=C(COc1ccccc1)N[C@@H](Cc1ccc(OCc2ccccc2)cc1)C(=O)O` reads over 30 µM.
Still for that read-out and setting: the result for `O=C(COc1ccc(-c2cccc(Cl)c2)cc1)N[C@@H](Cc1ccc(O)cc1)C(=O)O` reads over 30 µM; that for `Cn1nccc1-c1ccc(OCC(=O)N[C@@H](Cc2ccc(OCc3ccccc3)cc2)C(=O)O)cc1`, over 30 µM; that for `COC(=O)[C@H](Cc1ccc(OCc2ccccc2)cc1)NC(=O)COc1ccc(-c2cccc(Cl)c2)cc1`, over 30 µM.
In data set [1], `O=C(COc1ccccc1F)N[C@@H](Cc1ccc(OCc2ccccc2)cc1)C(=O)O` showed an IC50 of over 30 µM.
Same read-out and setting: the result for `O=C(COc1ccc(-c2ccc(Cl)cc2)cc1)N[C@@H](Cc1ccc(OCc2ccccc2)cc1)C(=O)O` reads 1.57 µM; that for `C[C@H](NC(=O)COc1ccc(-c2cccc(Cl)c2)cc1)C(=O)O`, over 30 µM.
`O=C(COc1ccc(-c2cccc(Cl)c2)cc1)N[C@@H](CC1CCCCC1)C(=O)O`: the IC50 in data set [1] is over 30 µM.
On to `O=C(COc1cccc(F)c1)N[C@@H](Cc1ccc(OCc2ccccc2)cc1)C(=O)O`, for which it took 13.9 µM to reach half-maximal inhibition in data set [1] (IC50).
The same measure, in the same setting: the value for `O=C(COc1ccc(-c2ccc(F)cc2)cc1)N[C@@H](Cc1ccc(OCc2ccccc2)cc1)C(=O)O` was 0.968 µM.
For the compound `O=C(COc1ccc(-c2cccc(Cl)c2)cc1)N[C@@H](Cc1ccc(OCc2ccccc2)cc1)C(=O)O`, the IC50 in [1] stood at 0.68 µM; in [2], 0.059 µM. The IC50 at 72 h in data set [3], in data set [4], in [5], in [6], in data set [7] and in data set [8] was over 30 µM throughout. In addition, the EC50 in data set [9], in data set [10], in data set [11], in [12], in [13] and in data set [14] was over 10 µM each time. Moreover, the EC50 in data set [15], in data set [16], in data set [17], in data set [18], in [19] and in data set [20] was over 10 µM in each case. Moreover, the Activity entry in data set [21], in [22] and in data set [23] was “Non-Toxic” each time. Further, in [24], the result was Active.
Turning to `COc1cccc(OCC(=O)N[C@@H](Cc2ccc(OCc3ccccc3)cc2)C(=O)O)c1`, in data set [1], the concentration for half-maximal inhibition (IC50) was over 30 µM.
Same read-out and setting: the result for `Cc1ccc(OCC(=O)N[C@@H](Cc2ccc(OCc3ccccc3)cc2)C(=O)O)cc1` reads over 30 µM; that for `N#Cc1cccc(OCC(=O)N[C@@H](Cc2ccc(OCc3ccccc3)cc2)C(=O)O)c1`, 17.4 µM; that for `O=C(COc1ccc(-c2cccc(F)c2)cc1)N[C@@H](Cc1ccc(OCc2ccccc2)cc1)C(=O)O`, 1.28 µM.
`O=C(COc1ccc(-c2ccccc2F)cc1)N[C@@H](Cc1ccc(OCc2ccccc2)cc1)C(=O)O` yielded a half-inhibitory concentration (IC50) in [1] of over 30 µM.
